We go through 30 molecules from US9969694B2, “N-(arylalkyl)-N′-pyrazolyl-urea, thiourea, guanidine and cyanoguanidine compounds as TrkA kinase inhibitors” (Array BioPharma Inc., priority 2012, dated 2018).

The assay has as its target T1, His-tagged recombinant human TrkA (Homo sapiens, UniProt P04629).
T1 construct: 6HIS tagged cytoplasmic domain from Invitrogen, Catalog No. PV3144; purchased Invitrogen PV3144
Put plainly: TrkA Kinase Binding Assay (LanthaScreen Eu). The following applies: averaged IC50; TR-FRET binding, 60 min, 22° C.; read-out: TrkA Enzyme IC50. The method, then:
TrkA binding activity was determined in a TrkA LanthaScreen™ Eu Kinase Binding Assay. 5 nM His-tagged recombinant human TrkA (6HIS tagged cytoplasmic domain from Invitrogen, Catalog No. PV3144) was incubated with 4 nM Alexa-Fluor® Tracer 236 (Invitrogen Cat. No. PV5592), 2 nM biotinylated anti-His (Invitrogen Cat. No. PV6090), and 2 nM europium-labeled Streptavidin (Invitrogen Cat. No. PV5899), in buffer (25 mM MOPS, pH 7.5, 5 mM MgCl2, 0.005% Triton X-100). Three fold serial dilutions of compounds of the invention in DMSO were added to a final percentage of 2% DMSO. After 60-minute incubation at 22° C., the reaction was measured using the EnVision mutlimode plate reader (PerkinElmer) via TR-FRET dual wavelength detection at […]. The percent of control was calculated using a ratiometric emission factor. The IC50 values were determined by fitting a four parameter model to the percent of control data.
Table A provides averaged IC50 values for compounds of the invention when tested in the assay of Example A, where A represents an averaged IC50 value <100 nM; B represents an averaged IC50 value from 100 to 1,000 nM; and C represents an average 1050 value above 1000 nM.
(In general: TR-FRET usually uses a lanthanide donor and a delayed reading to cut background.)

T1 sequence (P04629 440-796 limits assumed): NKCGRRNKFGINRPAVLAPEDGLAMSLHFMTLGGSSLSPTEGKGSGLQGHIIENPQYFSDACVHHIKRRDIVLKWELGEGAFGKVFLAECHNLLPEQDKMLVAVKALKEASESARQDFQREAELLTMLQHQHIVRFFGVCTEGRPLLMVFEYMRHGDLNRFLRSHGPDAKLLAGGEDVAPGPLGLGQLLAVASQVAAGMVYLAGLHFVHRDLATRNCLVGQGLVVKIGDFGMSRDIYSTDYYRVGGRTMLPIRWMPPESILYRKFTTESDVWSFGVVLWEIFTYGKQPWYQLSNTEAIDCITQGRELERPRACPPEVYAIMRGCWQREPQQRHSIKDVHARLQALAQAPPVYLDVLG

On to `COCc1ccc(C2CC2)c(C(C)NC(=O)Nc2c(C)c(-c3cnn(C)c3)nn2-c2ccccc2)c1` (stereo not drawn) [Example 30, 1-(1-(2-cyclopropyl-5-(methoxymethyl)phenyl)ethyl)-3-(1′,4-dimethyl-1-phenyl-1H,1′H-[3,4′-bipyrazol]-5-yl)urea], for which the concentration for half-maximal inhibition (IC50) (in general, the concentration at which inhibition is half-maximal) lay within 100 to 1000 nM.
The value for `COCc1ccc(C2(F)COC2)c(CNC(=O)Nc2c(C)c(-c3cnn(C)c3)nn2-c2ccccc2)c1` [Example 31, 1-(1′,4-dimethyl-1-phenyl-1H,1′H-[3,4′-bipyrazol]-5-yl)-3-(2-(3-fluorooxetan-3-yl)-5-(methoxymethyl)benzyl)urea] was less than 100 nM.
In the case of `COCc1ccc(C2(F)COC2)c(CNC(=O)Nc2c(C)c(-c3ccc(C)nc3)nn2-c2ccccc2)c1` [Example 32, 1-(2-(3-fluorooxetan-3-yl)-5-(methoxymethyl)benzyl)-3-(4-methyl-3-(6-methylpyridin-3-yl)-1-phenyl-1H-pyrazol-5-yl)urea], the IC50 was 100 to 1000 nM.
Turning to `COCc1ccc(C(C)C)c(CNC(=O)Nc2c(C)c(-c3cnn(C)c3)nn2-c2ccccc2)c1` [Example 34, 1-(1′,4-dimethyl-1-phenyl-1H,1′H-[3,4′-bipyrazol]-5-yl)-3-(2-isopropyl-5-(methoxymethyl)benzyl)urea], the IC50 was less than 100 nM.
As for `COCc1ccc(C(C)(C)C)c(CNC(=O)Nc2c(C)c(-c3cnn(C)c3)nn2-c2ccccc2)c1` [Example 35, 1-(2-(tert-butyl)-5-(methoxymethyl)benzyl)-3-(1′,4-dimethyl-1-phenyl-1H,1′H-[3,4′-bipyrazol]-5-yl)urea], the figure is less than 100 nM.
The value for `COCc1cc(CNC(=O)Nc2c(C)c(-c3cnn(C)c3)nn2-c2ccccc2)c(C2CCC2)cn1` [Example 36, 1-((5-cyclobutyl-2-(methoxymethyl)pyridin-4-yl)methyl)-3-(1′,4-dimethyl-1-phenyl-1H,1′H-[3,4′-bipyrazol]-5-yl)urea] was less than 100 nM; that for `Cc1c(-c2cnn(C)c2)nn(-c2ccccc2)c1NC(=O)NCc1ccncc1C1CCC1` [Example 37, 1-((3-cyclobutylpyridin-4-yl)methyl)-3-(1′,4-dimethyl-1-phenyl-1H,1′H-[3,4′-bipyrazol]-5-yl)ureaea] was 100 to 1000 nM; that for `COCc1ccc(C2CC(F)(F)C2)c(CNC(=O)Nc2c(C)c(-c3cnn(C)c3)nn2-c2ccccc2)c1` [Example 38, 1-(2-(3,3-difluorocyclobutyl)-5-(methoxymethyl)benzyl)-3-(1′,4-dimethyl-1-phenyl-1H,1′H-[3,4′-bipyrazol]-5-yl)urea] was less than 100 nM.
The value for `Cc1ccccc1CC(NC(=O)Nc1c2c(nn1-c1ccccc1)CCC2)c1ccccc1` (stereo not drawn) [Example 39, 1-(2-phenyl-2,4,5,6-tetrahydrocyclopenta[c]pyrazol-3-yl)-3-(1-phenyl-2-o-tolylethyl)urea] was 100 to 1000 nM; that for `O=C(Nc1c2c(nn1-c1ccccc1)CCC2)NC(Cc1ccccc1)c1ccccc1` (stereo not drawn) [Example 40, 1-(1,2-diphenylethyl)-3-(2-phenyl-2,4,5,6-tetrahydrocyclopenta[c]pyrazol-3-yl)urea] was 100 to 1000 nM.
For `CC(Cc1ccccc1)(NC(=O)Nc1c2c(nn1-c1ccccc1)CCC2)c1ccccc1` (stereo not drawn) [Example 41, 1-(1,2-diphenylpropan-2-yl)-3-(2-phenyl-2,4,5,6-tetrahydrocyclopenta[c]pyrazol-3-yl)urea], the IC50 was in the range of 100 to 1000 nM.
The value for `O=C(Nc1c2c(nn1-c1ccccc1)CCC2)NC(Cc1ccccc1)Cc1ccccc1` [Example 42, 1-(1,3-diphenylpropan-2-yl)-3-(2-phenyl-2,4,5,6-tetrahydrocyclopenta[c]pyrazol-3-yl)urea] was less than 100 nM; that for `Cc1c(-c2cnn(C)c2)nn(-c2ccccc2)c1NC(=O)NCc1cccc2ccccc12` [Example 43, 1-(1′,4-dimethyl-1-phenyl-1H,1′H-3,4′-bipyrazol-5-yl)-3-(naphthalen-1-ylmethyl)urea] was 100 to 1000 nM; that for `Cc1c(-c2cnn(C)c2)nn(-c2ccccc2)c1NC(=O)NCC1CCCc2ccccc21` (stereo not drawn) [Example 44, 1-(1′,4-dimethyl-1-phenyl-1H,1′H-3,4′-bipyrazol-5-yl)-3-((1,2,3,4-tetrahydronaphthalen-1-yl)methyl)urea] was less than 100 nM.
The value for `O=C(Nc1c2c(nn1-c1ccccc1)CCC2)NC(Cc1ccccc1Cl)c1ccccc1` (stereo not drawn) [Example 45, 1-(2-(2-chlorophenyl)-1-phenylethyl)-3-(2-phenyl-2,4,5,6-tetrahydrocyclopenta[c]pyrazol-3-yl)urea] was 100 to 1000 nM; that for `O=C(Nc1c2c(nn1-c1ccccc1)CCC2)NC(Cc1ccccc1)Cc1ccccc1Cl` (stereo not drawn) [Example 46, 1-(1-(2-chlorophenyl)-3-phenylpropan-2-yl)-3-(2-phenyl-2,4,5,6-tetrahydrocyclopenta[c]pyrazol-3-yl)urea] was less than 100 nM.
With `O=C(Nc1c2c(nn1-c1ccccc1)CCC2)NC(Cc1ccccc1)Cc1ccc(F)c(F)c1` (stereo not drawn) [Example 47, 1-(1-(3,4-difluorophenyl)-3-phenylpropan-2-yl)-3-(2-phenyl-2,4,5,6-tetrahydrocyclopenta[c]pyrazol-3-yl)urea], the IC50 was less than 100 nM.
As for `COc1ccccc1CC(Cc1ccccc1)NC(=O)Nc1c2c(nn1-c1ccccc1)CCC2` (stereo not drawn) [Example 48, 1-(1-(2-methoxyphenyl)-3-phenylpropan-2-yl)-3-(2-phenyl-2,4,5,6-tetrahydrocyclopenta[c]pyrazol-3-yl)urea], the figure is 100 to 1000 nM.
As for `O=C(Nc1c2c(nn1-c1ccccc1)CCC2)NC(CCC(F)(F)F)Cc1ccccc1` (stereo not drawn) [Example 49, 1-(2-phenyl-2,4,5,6-tetrahydrocyclopenta[c]pyrazol-3-yl)-3-(5,5,5-trifluoro-1-phenylpentan-2-yl)urea], the figure is 100 to 1000 nM; as for `Cc1c(-c2cnn(C)c2)nn(-c2ccccc2)c1NC(=O)NCc1ccccc1-c1ccccc1` [Example 50, 1-([1,1′-biphenyl]-2-ylmethyl)-3-(1′,4-dimethyl-1-phenyl-1H,1′H-[3,4′-bipyrazol]-5-yl)urea], 100 to 1000 nM; as for `COCc1ccc(OC(F)F)c(CNC(=O)Nc2c(C)c(-c3cncc(OC)c3)nn2-c2ccccc2)c1` [Example 52, 1-(2-(difluoromethoxy)-5-(methoxymethyl)benzyl)-3-(3-(5-methoxypyridin-3-yl)-4-methyl-1-phenyl-1H-pyrazol-5-yl)urea], less than 100 nM.
For `COCc1ccc(OC(F)(F)F)c(CNC(=O)Nc2c(C)c(-c3ccc(OC)nc3)nn2-c2ccccc2)c1` [Example 53, 1-(5-(methoxymethyl)-2-(trifluoromethoxy)benzyl)-3-(3-(6-methoxypyridin-3-yl)-4-methyl-1-phenyl-1H-pyrazol-5-yl)urea], the IC50 was less than 100 nM.
As for `COCc1ccc(OC(F)(F)F)c(CNC(=O)Nc2c(C)c(-c3cncc(OC)c3)nn2-c2ccccc2)c1` [Example 54, 1-(5-(methoxymethyl)-2-(trifluoromethoxy)benzyl)-3-(3-(5-methoxypyridin-3-yl)-4-methyl-1-phenyl-1H-pyrazol-5-yl)urea], the figure is less than 100 nM; as for `CNC(=O)c1nn(-c2ccccc2)c(NC(=O)NCc2cc(COC)ccc2OC(F)(F)F)c1C` [Example 55, 5-(3-(5-(methoxymethyl)-2-(trifluoromethoxy)benzyl)ureido)-N,4-dimethyl-1-phenyl-1H-pyrazole-3-carboxamide], less than 100 nM.
The value for `CNC(=O)c1nn(-c2ccccc2)c(NC(=O)NCc2cc(COC)ccc2OC(F)F)c1C` [Example 56, 5-(3-(2-(difluoromethoxy)-5-(methoxymethyl)benzyl)ureido)-N,4-dimethyl-1-phenyl-1H-pyrazole-3-carboxamide] was less than 100 nM; that for `COCc1ccc(OC(F)(F)F)c(CNC(=O)Nc2c3c(nn2-c2ccccc2)CSC3)c1` [Example 57, 1-(5-(methoxymethyl)-2-(trifluoromethoxy)benzyl)-3-(2-phenyl-4,6-dihydro-2H-thieno[3,4-c]pyrazol-3-yl)urea] was less than 100 nM; that for `COCc1ccc(OC(F)(F)F)c(CNC(=O)Nc2c3c(nn2-c2ccccc2)CS(=O)(=O)C3)c1` [Example 58, 1-(5,5-dioxido-2-phenyl-4,6-dihydro-2H-thieno[3,4-c]pyrazol-3-yl)-3-(5-(methoxymethyl)-2-(trifluoromethoxy)benzyl)urea] was less than 100 nM.
The value for `COCc1ccc(OC(F)(F)F)c(CNC(=O)Nc2c(C)c(-c3cnc(OC)nc3)nn2-c2ccccc2)c1` [Example 59, 1-(5-(methoxymethyl)-2-(trifluoromethoxy)benzyl)-3-(3-(2-methoxypyrimidin-5-yl)-4-methyl-1-phenyl-1H-pyrazol-5-yl)urea] was less than 100 nM; that for `COCc1ccc(OC(F)(F)F)c(CNC(=O)Nc2c(C)c(OCCF)nn2-c2ccccc2)c1` [Example 60, 1-(3-(2-fluoroethoxy)-4-methyl-1-phenyl-1H-pyrazol-5-yl)-3-(5-(methoxymethyl)-2-(trifluoromethoxy)benzyl)urea] was less than 100 nM; that for `COCc1ccc(OC(F)(F)F)c(CNC(=O)Nc2c(C)c(OCc3nnc(C)o3)nn2-c2ccccc2)c1` [Example 61] was less than 100 nM.
